Experimental findings from ChEMBL document CHEMBL1125143, “Relationship between structure, conformational flexibility, and biological activity of agonists and antagonists at the N-methyl-D-aspartic acid subtype of excitatory amino acid receptors” (J Med Chem, 1990) are described below.

The source made the active and inactive calls. The calls are words filed in the database; no cut-off is given here.

The target of test [1] is T1, Glutamate NMDA receptor (Rattus norvegicus) (UniProt P35439+Q00959+Q00960+Q00961+Q62645+Q8VHN2+Q9R1M7).
In test [2] the target is T1, Glutamate NMDA receptor (Rattus norvegicus). Briefly: Antagonistic activity against N-methyl-D-aspartate glutamate receptor antagonist was determined in rat cortical slice preparation at concentration up to 5 mM; not active. It is filed as functional.
The target is the same in test [3]. As to the kind of experiment: Agonistic activity against N-methyl-D-aspartate glutamate receptor was determined in rat cortical slice preparation at concentration up to 5 mM; Not active. It is filed as functional.
The target is the same in test [4]. As to the kind of experiment: Effective dose required for agonistic activity against N-methyl-D-aspartate glutamate receptor was determined in rat cortical slice preparation. It is filed as functional.
Test [5] has the same target. As to the kind of experiment: Antagonistic activity against N-methyl-D-aspartate glutamate receptor antagonist was determined in rat cortical slice preparation at concentration up to 1 mM; not active. It is filed as functional.
Test [6] has the same target. As to the kind of experiment: Antagonistic activity against N-methyl-D-aspartate glutamate receptor antagonist was determined in rat cortical slice preparation at concentration up to 100 mM; not active. It is filed as functional.
For test [7] the target is unchanged. As to the kind of experiment: Antagonistic activity against N-methyl-D-aspartate glutamate receptor antagonist was determined in rat cortical slice preparation at concentration up to 100 mM; Active. It is filed as functional.

As for `CN[C@H](CC(=O)O)C(=O)O`, the ED50 in test [1] is 15 µM.
`O=C(O)[C@@H]1CCC[C@H](C(=O)O)N1`: the NA result in test [2] was “inactive”. In test [3], the ED50 result was “inactive”.
With `O=C(O)[C@@H]1CCCN[C@H]1C(=O)O` (relative stereo), the ED50 in test [4] was 35 µM.
The compound `O=C(O)[C@@H]1CCN[C@@H](C(=O)O)C1` (relative stereo) came in with an ED50 in test [4] of 60 µM.
Consider `O=C(O)[C@@H]1CC[C@H](C(=O)O)NC1` (relative stereo), for which the NA entry in test [5] is “inactive”.
Consider `O=C(O)[C@H]1CCCN[C@H]1C(=O)O` (relative stereo), for which the NA entry in test [6] is “inactive”. In test [4], this compound returned an ED50 of 15 µM.
With `O=C(O)[C@H]1CCN[C@@H](C(=O)O)C1` (relative stereo), the A entry in test [7] is “Active”. In addition, the ED50 result in test [3] was “inactive”.
For the compound `O=C(O)[C@H]1CC[C@H](C(=O)O)NC1` (relative stereo), the NA entry in test [2] is “inactive”. Also, the ED50 entry in test [3] is “inactive”.
